Measurements taken from US20090325917A1, “Pharmaceutical Compositions and Nasal Spray Incorporating Anhydrous Mometasone Furoate” (CIPLA LIMITED, priority 2006, published 2009).

Tests used:
[1] = aqueous solution; converted to a different crystalline form after storage at 35° C.; cited from earlier work
[2] = Rotation stability of the composition, crystalline form assessed by X-ray diffraction; format: physicochemical; conditions: in the aqueous composition; rotated for five days at 35° C. and an additional four weeks at room temperature
Description: The crystalline form may be assessed using X-ray diffraction methods.

[3] = Storage stability of the composition, crystalline form assessed by X-ray diffraction; format: physicochemical; conditions: in the aqueous composition
Description: The stability of the compositions in accordance with the present invention may be defined by standard methods. The anhydrous crystalline form is stable at room temperature. […] The crystalline form may be assessed using X-ray diffraction methods.

[4] = Stability of the API on boiling/stirring in water, tested by X-ray diffraction; format: physicochemical; conditions: boiling in water (with and without Tween 80), two hours stirring at 70 deg in a water bath, then 2 hours at 70 deg on a magnetic stirrer; residue dried at 25° C. under vacuum
Description: The monohydrate peak is clearly visible in the BX 2029 trace, and is absent in the remaining pattern, indicating the presence of anhydrous form in the formulation. Stability of the mometasone furoate anhydrous API was confirmed by boiling in water (with and without the surfactant Tween 80) for two hours whilst stirring at 70 deg in a water bath, followed by 2 hours at 70 deg on a magnetic stirrer. The solution was cooled to room temperature, filtered and the residue containing the API was dried at 25° C. under vacuum. […]

## C[C@@H]1C[C@H]2[C@@H]3CCC4=CC(=O)C=C[C@]4(C)[C@@]3(Cl)[C@@H](O)C[C@]2(C)[C@@]1(OC(=O)c1ccco1)C(=O)CCl [anhydrous mometasone furoate]
[1]
  stability of the crystalline form in aqueous composition: unstable
[2]
  crystalline form of the anhydrous mometasone furoate in the composition: does not change
[3]; 25° for a period of three months
  crystalline form of the anhydrous mometasone furoate in the composition: does not change
[3]; 40° C. for a period of three months
  crystalline form of the anhydrous mometasone furoate in the composition: does not change
[4]
  XRD pattern of the dried sample after treatment in water: concordant with that of mometasone furoate anhydrous
